For assay [1], the target named is T1, DNA repair protein RAD51 homolog 1 (Homo sapiens) (UniProt Q06609).
T1 sequence (whole entry): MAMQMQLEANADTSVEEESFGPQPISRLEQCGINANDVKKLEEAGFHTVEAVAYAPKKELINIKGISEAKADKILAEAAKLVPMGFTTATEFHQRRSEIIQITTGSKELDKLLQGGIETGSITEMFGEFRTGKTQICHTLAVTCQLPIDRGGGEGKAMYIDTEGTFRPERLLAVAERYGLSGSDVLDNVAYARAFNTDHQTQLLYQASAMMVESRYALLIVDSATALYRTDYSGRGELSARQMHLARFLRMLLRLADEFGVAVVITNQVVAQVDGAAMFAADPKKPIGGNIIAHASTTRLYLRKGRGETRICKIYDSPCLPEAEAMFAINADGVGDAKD
The experiment in a line: Inhibition of RAD51 (unknown origin) assessed as inhibition of DNA pairing by measuring D-loop formation between [32P]-ssDNA and homologous supercoiled pUC19 DNA at 30 uM incubated for 15 mins by gel electrophoresis method relative to control.

The target of assay [2] is T1, DNA repair protein RAD51 homolog 1 (Homo sapiens). The assay is described as follows: Inhibition of RAD51 (unknown origin) assessed as inhibition of DNA pairing by measuring D-loop formation between [32P]-ssDNA and homologous supercoiled pUC19 DNA at 10 times RAD52 IC50 incubated for 15 mins by gel electrophoresis method relative to control.
In assay [3] the target is T2, DNA repair protein RAD52 homolog (Homo sapiens) (UniProt P43351).
T2 sequence (whole entry): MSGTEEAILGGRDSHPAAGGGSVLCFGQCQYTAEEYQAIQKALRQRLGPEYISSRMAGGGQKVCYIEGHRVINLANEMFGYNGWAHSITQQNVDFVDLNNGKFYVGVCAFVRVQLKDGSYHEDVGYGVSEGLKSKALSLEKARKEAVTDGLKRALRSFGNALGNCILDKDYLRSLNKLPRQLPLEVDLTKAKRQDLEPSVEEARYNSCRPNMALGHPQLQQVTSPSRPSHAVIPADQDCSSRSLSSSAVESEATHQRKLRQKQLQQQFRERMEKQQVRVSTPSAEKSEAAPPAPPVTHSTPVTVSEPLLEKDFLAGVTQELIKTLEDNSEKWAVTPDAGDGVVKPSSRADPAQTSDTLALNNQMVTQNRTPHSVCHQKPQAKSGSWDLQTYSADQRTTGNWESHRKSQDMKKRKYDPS
The assay is described as follows: Inhibition of RAD52 (unknown origin) assessed as inhibition of DNA pairing using [32P]-ssDNA by measuring D-loop formation incubated for 15 mins by gel electrophoresis method.

Another assay concerns CAPAN-1. The assay is described as follows: Growth inhibition of BRCA2-deficient human Capan1 cells at 2.5 to 10 uM following media refreshment every 3 days and measured on day 10 by CellTiter-Glo assay. It counts as functional, cell-based.
The species entered for another assay is Homo sapiens. The assay is described as follows: Growth inhibition of BRCA1-deficient human UWB1.289 cells at 2.5 to 10 uM following media refreshment every 3 days and measured on day 10 by CellTiter-Glo assay. The class given is functional.
In assay [4] the target is T2, DNA repair protein RAD52 homolog (Homo sapiens). The experiment in a line: Inhibition of RAD52 (unknown origin) expressed in BCR-ABL1-positive and BRCA1-deficient mouse 32Dcl3 cells expressing GFP-RAD52 assessed as cisplatin-induced RAD52 foci formation by measuring fraction of cell without foci at 2.5 uM by AlexaFluor-594 staining based inverted fluorescence microscopy (reference value: 48.4 +/- 6.2%). More on the design: scale not given: the % may be the effect or the level left.

The target is the same in assay [5]. The experiment in a line: Inhibition of RAD52 (unknown origin) expressed in BCR-ABL1-positive and BRCA1-deficient mouse 32Dcl3 cells expressing GFP-RAD52 assessed as reduction in cisplatin-induced RAD52 foci formation at 2.5 uM by AlexaFluor-594 staining based inverted fluorescence microscopy relative to control. The class given is cell-based.
Another assay deals with Salmon testes DNA. The experiment in a line: Binding affinity to salmon sperm DNA incubated for 20 mins by acridine orange displacement based fluorescence polarization assay. As to conditions: Salmonidae. It counts as nucleic-acid assay. (In general: Fluorescence polarisation rises when a labelled molecule tumbles more slowly, as on binding a larger partner.)

Active and inactive are the calls of the source. The rule behind the calls is not given here.

As for `CCCCN(CC)CCCN=C(S)Nc1ccc2nc(N3CCN(C)CC3)cc(C)c2c1`, the inhibition in assay [1] is over 90%; in assay [2], 108%; in assay [3] it was “Dose-dependent effect”.

`Cc1c(C(=O)Nc2ccc(S(=O)(=O)N(C)C3CCN(C)CC3)cc2)oc2c(Cl)cccc12`: the inhibition in assay [1] was over 90%; in assay [2], 97.5%; in assay [3], “Dose-dependent effect”.

Turning to `Cc1ccc(C(=O)c2oc3ccc(Cl)cc3c2NC(=O)CN2CCN(C)CC2)cc1`, the inhibition in assay [1] is over 90%; in assay [2], 92.5%; in assay [3], “Dose-dependent effect”.

Turning to `CCCCN(CC)CCNC(=O)c1cc2c(-c3ccc(Cl)cc3)nn(C)c2s1`, the inhibition in assay [1] was over 90%; in assay [2], 58.6%; in assay [3], “Dose-dependent effect”. The “growth inhibition (GI)” value in the assay with CAPAN-1 and in the assay listed under Homo sapiens was “Active” each time.

Take `CCN1CCN(CCCNC(=S)Nc2ccc3nc(N(C)CCN)cc(C)c3c2)CC1`: the figures for the inhibition in assay [1], in assay [2] and in assay [3] were over 90%, 111% and “Dose-dependent effect”, respectively.

Turning to `COc1ccccc1Nc1nc(NCCCO)c2ccccc2n1`, the inhibition in assay [1] is over 90%; in assay [2], 89.7%; in assay [3], “Dose-dependent effect”. Further, the “growth inhibition (GI)” value in the assay on CAPAN-1 and in the assay filed under Homo sapiens was “Active” in each case.

Turning to `Cc1ccc(-c2nc(C(=O)NCCCN3CCOCC3)cc3c2[nH]c2ccccc23)cc1`, the inhibition is over 90% in assay [1], 73.6% in assay [2] and “Dose-dependent effect” in assay [3].

Turning to `Cc1cc(N2CCN(C)CC2)nc2ccc(NC(S)=NCCCN3CCN(C)CC3)cc12`, the inhibition in assay [1] is over 90%; in assay [2] it was 112%; in assay [3], “Dose-dependent effect”.

For `COc1ccc(-c2nc(C(=O)NCCCN3CCOCC3)cc3c2[nH]c2ccccc23)cc1OC`, the values for the inhibition in assay [1], in assay [2] and in assay [3] were over 90%, 93.7% and “Dose-dependent effect”, respectively.

For `Cn1nc(-c2ccc(Cl)cc2)c2cc(C(=O)NCCCN3CCCCCC3)sc21`, the inhibition is over 90% in assay [1], 48.6% in assay [2] and “Dose-dependent effect” in assay [3]. Besides, the “growth inhibition (GI)” value in the assay with CAPAN-1 and in the assay filed under Homo sapiens was “Active” throughout.

In the case of `COc1ccc(OC)c(Nc2nc(NCCCO)c3ccccc3n2)c1`, the Activity in assay [4] was 71.9%. The inhibition in assay [1] was over 90%; in assay [2], 75.6%; in assay [3], “Dose-dependent effect”. Also, in assay [5], the fold change (FC) was in the range of 2 to 2.5. The “growth inhibition (GI)” value in the assay on CAPAN-1 and in the assay listed under Homo sapiens was “Active” each time. Besides, the result with Salmon testes DNA was inactive.

Take `COc1ccc(OC)c(Nc2nc(NCCO)c3ccccc3n2)c1`: the inhibition in assay [1] is over 90%; in assay [2], 75.1%; in assay [3], “Dose-dependent effect”. The “growth inhibition (GI)” value with CAPAN-1 and in the assay filed under Homo sapiens was “Active” in each case.

With `CN1CCN(CCCNC(=O)c2cc3c(-c4ccc(Cl)cc4)nn(C)c3s2)CC1`, the inhibition is over 90% in assay [1], 38.4% in assay [2] and “Dose-dependent effect” in assay [3].

For the compound `CCCN(CCC)CCCNC(=S)Nc1ccc2nc(N3CCN(C)CC3)cc(C)c2c1`, the inhibition was over 90% in assay [1], 111% in assay [2] and “Dose-dependent effect” in assay [3].

With `CCN(CC)CCCN(Cc1cc2cc3c(cc2nc1O)OCO3)C(S)=NCCCN(C)C`, the values for the inhibition in assay [1], in assay [2] and in assay [3] were over 90%, 102% and “Dose-dependent effect”, respectively.

On to `Cn1nc(-c2ccc(Cl)cc2)c2cc(C(=O)NCCCN3CCCC3)sc21`, for which the values for the inhibition in assay [1], in assay [2] and in assay [3] were over 90%, 35.3% and “Dose-dependent effect”, respectively.

Usually inhibition stands for the change of the read-out against control, counted positive when it falls.

(Values after ChEMBL document CHEMBL4417629, “Inhibitors of RAD52 Recombination Protein and Methods Using Same” (2018).)
